Test results: patent publication US11872263B2, “AIMP1 protein fragment and hair growth-promoting composition containing same as active ingredient” (CUREBIO THERAPEUTICS, priority 2016, dated 2024)

Legend:
[1] = system: β-catenin target genes AXIN, CD44 and TCF7; experiment: qRT-PCR of β-catenin target genes in CD34+ cells; type: cell-based, mouse; settings: 100 nM, CD34+ cells cultured 8 hours
Protocol: In order to confirm the induction of CD34+ hair follicle stem cell proliferation through β-catenin pathway, mRNA expression levels of β-catenin target genes AXIN, CD44 and TCF7 were confirmed by the following method. Specifically, each test substance was treated and CD34+ cells were cultured for 8 hours. Then, the cultured cells were collected, RNA was isolated using GeneJET RNA purification kit (Thermo Fisher, K0731), and cDNA was synthesized with the Maxima first strand cDNA synthesis kit (Thermo Fisher, K1642). qRT-PCR was performed using each of the gene-specific primers (TCF7: 5′-[…]-3′ (SEQ ID NO: 36) and 5′-[…]-3′ (SEQ ID NO: 37), AXIN2: 5′-CTCCTTGGAGGCAAGAGC-3′ (SEQ ID NO: 38) and 5′-GGCCACGCAGCACCGCTG-3′ (SEQ ID NO: 39), CD44: 5′-[…]-3′ (SEQ ID NO: 40) and 5′-GGAGTCTTCGCTTGGGGTA-3′ (SEQ ID NO: 41)), Maxima SYBR green/ROX qPCR master mix (Thermo Fisher, K0222) and 7500 Real-time PCR system (Applied Biosystems, 2720; condition: 40 cycles, 2 step (95° C. for 15 sec, and 54° C. for 60 sec). The expression level of each gene was calculated by the ΔΔCT method.

[2] = system: CD34+ hair follicle stem cells; experiment: In vitro hair growth assay / BrdU proliferation assay with CD34+ hair follicle stem cells; type: cell-based, mouse
Protocol: The hair of the dorsal skin of 7 weeks old male C57BL6 mice (purchased from Orient Bio Inc.) were cut with a clipper and skin tissue samples of the depilated dorsal region of the mice were collected. The collected skin tissue samples were immersed in medium using collagenase, DNase I, and hyaluronidase, and cells were isolated using Gentle MACSTM Dissociator (Miltenyi Biotec). After the cells were separated, the separated cells were incubated with a mouse CD34-Biotin antibody (Miltenyi Biotec). Cells and antibody solutions were incubated with streptavidin microbeads (Miltenyi Biotec) and then separated using LS column (Miltenyi Biotec). The separated cells were cultured in DMEM medium containing 10% FBS, 1% penicillin/streptomycin solution in humidified air of 95% 02 and 5% CO2 at 37° C.
Cell proliferation can be confirmed using the BrdU cell proliferation assay kit (Cell Signaling). Proliferation assays were performed using protocols presented by […]. Briefly, the cells were incubated with BrdU for 2 h. The primary BrdU detection antibody was incubated for 1 hour and the secondary anti-mouse IgG, HRP-conjugate antibody was incubated for 30 minutes.
A hair growth in vitro assay was performed using the Cyquant Assay (Thermo Fisher). […]

[3] = system: C3H/HeJ mice having alopecia universalis; experiment: Hair growth in C3H/HeJ mice with skin graft-induced alopecia areata; type: in vivo, mouse; settings: 100 μl of 100 nM topical once daily for 14 weeks
Description: In order to confirm the effect of the polypeptide of the present invention on the human hair growth cycle, C3H/HeJ mouse (Jackson Laboratory, USA) was used as an animal model reflecting the pathological state of human alopecia areata. The advantage of using the C3H/HeJ mouse is that when full thickness skin graft is applied to an aged mouse having alopecia areata from young age, patchy alopecia develops within 8 to 10 weeks, and after 20 weeks, alopecia extends to the whole body skin and result in a chronic state of alopecia universalis.
In this test, C3H/HeJ female mice having alopecia universalis that was induced 25 weeks after skin transplantation as described above were used. Without any pretreatment such as shaving or depilation, control group (Control-treated mice, 100 μl of 20% glycerol/PBS) and Neo-Pep polypeptide treated group (Peptide-treated mice, 100 μl of 100 nM Neo-Pep polypeptide (SEQ ID NO: 1) in 20% glycerol/PBS) were treated with each test material topically around the alopecia region using brush, once daily, for 14 weeks. Control group and Neo-Pep treated group consisted of 4 mice, respectively.
Photographs were taken every 2 weeks from the beginning of the experiment.

[4] = system: hair follicles in skin tissue of C3H/HeJ mice; experiment: H&E histology of skin tissue of C3H/HeJ alopecia areata mice; type: in vivo, mouse; settings: 100 nM topical
Description: Meanwhile, in the images of the skin tissue of the mouse in FIG. 7, the skin tissue at the alopecia area and the area without alopecia around it was collected, fixed in Fekete's acid alcohol formalin and analyzed for H&E staining.
These are main characteristics used for diagnosing alopecia areata. And follicular dystrophy is a phenomenon that occurs frequently in alopecia areata, which means that hair follicles are twisted and deformed or have weak or disrupted hair shaft.

[5] = system: hair follicle region of skin tissue; experiment: Histological analysis (IHC for BrdU, β-catenin, Cytokeratin 15) of skin at Day 6 after depilation; type: in vivo, mouse; settings: 100 nM
Protocol: A skin sample of 7 weeks old male C57BL6 mice (purchased from Orient Bio Inc.) was collected and placed in a paraffin block. IHC (Immunohistochemistry) was performed using Cytokeratin 15 antibody (Abcam), BrdU antibody (Novusbio), and β-catenin antibody.
For reference, β-catenin is a hair follicle signaling marker, Cytokeratin 15 is a hair follicle stem cell marker, and BrdU is a cell proliferation marker.
β-catenin is a very important protein for hair growth and a very important factor in follicular stem cell proliferation playing a role as a signaling marker for hair follicle cells. In addition, Cytokeratin 15 acts as a biomarker of hair follicle stem cells, and BrdU is known to be a factor that plays a role as a cell growth marker.

[6] = system: hair follicles of anagen phase in dorsal skin; experiment: H&E staining of dorsal skin sections: anagen hair follicle count and dermis thickness; type: in vivo, mouse; settings: H&E stained dorsal skin sections, Day 13 after depilation, 100 nM
Protocol: Skin samples of 7 weeks old male C57BL6 mice (purchased from Orient Bio Inc.) were collected and placed in a cryomold using an OCT compound (Tissue-Tek) and stored at −80° C. in a freezer. After tissue sections were prepared with Microm HM 525 (Thermo Scientific), the tissue sections prepared in the slide glass were fixed with 4% paraformaldehyde for 10 minutes, washed twice with PBS for 5 minutes, and then stained with 50 μl of hematoxylin solution (Sigma Aldrich) for 6 minutes and washed with water and PBS for 5 minutes. Then, stained with eosin (Sigma Aldrich), briefly washed with water and washed with PBS for 5 min, then briefly twice with 95% ethanol and 100% ethanol, respectively. After treatment with xylene (Duksan) twice for 2 min, the stained tissue sections were covered with cover slides and fixed.
In addition, dorsal skin samples of the mice were collected and placed in a cryomold using an OCT compound (Tissue-Tek) and stored at −80° C. in a freezer. […] The number of hair follicles of anagen phase (growth phase) was counted and compared quantitatively in dorsal skin sections of each group stained with hematoxylin and eosin (H & E).

[7] = system: dorsal hair of depilated C57BL6 mice; experiment: In vivo hair regrowth after depilation of dorsal skin of mice; set-up: species or system mouse; settings: 13 days after depilation, 100 nM polypeptide, 80 μl topical once a day
Protocol: (§1) The hair of the dorsal skin of mice (7 weeks old male C57BL6, purchased from Orient Bio Inc.) was cut out with a clipper, and hair removal cream (Niclean, Ildong Pharmaceutical) was applied. The depilated area was about 2×2.5 cm. Mice were treated with 20% glycerol/PBS (control group), 3% Minoxidil (MNX, 140 mM), FGF7 (100 nM) or Neo-Pep of the present invention (polypeptide of SEQ ID NO: 1, 100 nM), respectively, once a day in 80 μl using brush, for 13 days (n=6 per group).
as §1, with “Specifically, the hair” for “The hair”, “of a mouse” for “of mice”, “group). For comparative observation, the dorsal skin of the mouse was photographed before and after the beginning of the test.” for “group).”

## AVLKRLEQKGAEADQIIEYLKQQVSLLKEKAILQATLREEK (Homo sapiens Neo-Pep polypeptide; AIMP1-(6-46))
[1]
  mRNA expression level of AXIN, CD44 and TCF7 compared to the control group: 5 fold
[2]; 1 nM, 10 nM, 100 nM and 1000 nM
  proliferation of CD34+ hair follicle stem cells: induced proliferation of CD34+ hair follicle stem cells in a dose-dependent manner
[2]; each peptide 100 nM, 24 hours
  inducing proliferation of CD34+ hair follicle stem cells (relative cell number): induced proliferation
[3]
  time at which hair began to grow again: 11 weeks
[3]; 4 mice per group
  mice with mild to moderate hair growth: 3 out of 4
[4]
  development of inflammation and deformed hair shaft compared to the control group: significantly lower
[5]
  start of anagen phase compared with control (BrdU, β-catenin, Cytokeratin 15): starts earlier
[6]
  dermis thickness compared with control: much thicker
  number of hair follicles of anagen phase compared with control: more than twice as much
[7]
  dorsal hair growth compared with control group: grew much more
